From patent publication US20050107682A1, “fMRI system for use in assessing the efficacy of therapies in treating CNS disorders” (priority 2003, published 2005)

Test system: PD patients
Test: fMRI of PD patients performing paced finger tapping (PFT), on and off dopamine supplementation
Assay type: in vivo
Experimental: In this fMRI study, ten PD patients and thirteen healthy age-matched controls were imaged while performing the PFT. PD patients underwent two imaging sessions, one on and the other off dopamine supplementation. For this study whole-brain fMRI was performed on a 1.5 Tesla General Electric Signa scanner equipped with a 3-axis local gradient head coil and an elliptical end-capped quadrature radiofrequency coil. Foam padding was used to limit head motion within the coil. Echo-planar images were collected using a single-shot, blipped gradient-echo echo-planar pulse sequence (TE=40 ms, TR=3.0 seconds, 90° flip angle, FOV=240 mm, matrix=64×64). Twenty-two contiguous sagittal 6 mm thick slices were collected to provide coverage of the entire brain (voxel size 3.75×3.75×6 mm). Overall, a total of 136 images were collected per run. Prior to functional imaging, high-resolution, three-dimensional, spoiled gradient-recalled at steady-state (GRASS) anatomic images were collected (TE=5 ms, TR=24 ms, 40° flip angle, NEX=1, slice thickness=1.2 mm, FOV=24 cm, matrix=256×128) for anatomic localization and co-registration.

N[C@@H](Cc1ccc(O)c(O)c1)C(=O)O [Levodopa] was tested, and the “effect on the S task (fMRI activation)” value (PD patients ON vs OFF medication, S condition of PFT task) was “relatively little effect”, the “spatial extent of activation within the SMC, SMA, and putamen” value (PD patients, fMRI during PFT, on vs off dopamine replacement) was “increase” and the brain activation patterns (PD patients, fMRI during PFT, relative to healthy controls) was “partially “normalized””. The PFT performance (PD patients, on vs off dopamine supplementation) was “lack of improvement”.
